Where two headings read alike, the source gives them in different places.

In one assay the target is T1, human PI3Kα protein (Homo sapiens, UniProt P42336).
T1 construct: purchased Carna Biosciences, Inc; host or cells: baculovirus expression system
Description: PI3Kα enzyme assay (ADP-Glo). In kind it is biochemical. Conditions: read-out: PI3Kα enzyme inhibitory activity. The method, boiled down:
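Biotinylated human PI3Kα (baculovirus-expressed, 4.5 nmol/L) pre-incubated 15 min with compound in Tris-HCl pH 7.5, MgCl2, BSA; reaction 60 min at 25° C with 50 μmol/L PIP2 and 100 μmol/L ATP final. ADP quantified by ADP-Glo luminescence; IC50 calculated.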

The target in assay [1] is T2, GST fusion human ERK2 protein (Homo sapiens, UniProt P28482).
T2 construct: purchased Carna Biosciences, Inc; host or cells: E. coli expression system
Briefly: ERK2 enzyme assay (1). In kind it is biochemical. Particulars: ERK2 enzyme assay (1); read-out: ERK2 enzyme inhibitory activity (1). The method in brief:
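Enzyme (2.5 nmol/L, E. coli-expressed) preincubated with compound 15 min at room temperature in HEPES/MgCl2/DTT/Brij35 buffer, pH 7.5; reaction with 4.25 μmol/L FL-Peptide 8 and 43.1 μmol/L ATP for 120 min at 25 °C. Phosphorylated peptide fraction quantified by mobility-shift separation after EDTA stop; IC50 calculated.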

Assay [2] concerns the target T2, GST fusion human ERK2 protein. Briefly: ERK2 enzyme assay (2). In kind it is biochemical. Particulars: ERK2 enzyme assay (2); read-out: ERK2 enzyme inhibitory activity (2). The method, boiled down: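 GST-tagged human ERK2 expressed in E. coli (1.25 nmol/L) was preincubated with compound for 15 min at room temperature in pH 7.5 Hepes buffer with MgCl2, DTT and Brij35. Reaction with FL-Peptide 8 (final 4.25 μmol/L) and ATP (final 1 mmol/L) ran 120 min at 25 °C; EDTA stopped it, and phosphorylated peptide was quantified by mobility-shift separation to derive IC50.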

Another assay has as its system CHO-K1 cells. Description: CHO cell toxicity test. In kind it is cell-based, Chinese hamster. Particulars: Cricetulus griseus, read-out: IC50 value (concentration at which the number of viable cells was suppressed to 50% or less). How it is done: In a CHO cell toxicity test, the following was used.
Cell: CHO-K1 cells (derived from Chinese hamster ovary) Test medium: F-12 MEDIUM+FCS (manufactured by Biowest) having a final concentration of 2%
Detection reagent: CELLTITER-GLO™ LUMINESCENT CELL VIABILITY ASSAY (trade name, manufactured by PROMEGA Corporation)
The CHO-K1 cells were seeded in a 96-well microplate for culture at 5,000 cells/well, and cultured in a CO2 incubator (37° C.) for 24 hours. An evaluation compound (final concentration: from 25.00 μmol/L to 0.20 μmol/L, common ratio: […]) was added thereto, followed by culturing for 24 hours, and the number of viable cells was calculated from emission intensity by CELLTITER-GLO™ (trade name, manufactured by PROMEGA Corporation). In the measurement of the emission intensity, VARIOSKAN FLASH (manufactured by Thermo Fisher Scientific Inc.) was used.
Inhibition ratio (%)=100−(A/B)×100
A: Emission intensity in the presence of a test compound
B: Emission intensity in the absence of a test compound

[3] abbreviates: CHO-K1 cells, 24 hours culture with compound, CellTiter-Glo.

T1 sequence (P42336 whole entry): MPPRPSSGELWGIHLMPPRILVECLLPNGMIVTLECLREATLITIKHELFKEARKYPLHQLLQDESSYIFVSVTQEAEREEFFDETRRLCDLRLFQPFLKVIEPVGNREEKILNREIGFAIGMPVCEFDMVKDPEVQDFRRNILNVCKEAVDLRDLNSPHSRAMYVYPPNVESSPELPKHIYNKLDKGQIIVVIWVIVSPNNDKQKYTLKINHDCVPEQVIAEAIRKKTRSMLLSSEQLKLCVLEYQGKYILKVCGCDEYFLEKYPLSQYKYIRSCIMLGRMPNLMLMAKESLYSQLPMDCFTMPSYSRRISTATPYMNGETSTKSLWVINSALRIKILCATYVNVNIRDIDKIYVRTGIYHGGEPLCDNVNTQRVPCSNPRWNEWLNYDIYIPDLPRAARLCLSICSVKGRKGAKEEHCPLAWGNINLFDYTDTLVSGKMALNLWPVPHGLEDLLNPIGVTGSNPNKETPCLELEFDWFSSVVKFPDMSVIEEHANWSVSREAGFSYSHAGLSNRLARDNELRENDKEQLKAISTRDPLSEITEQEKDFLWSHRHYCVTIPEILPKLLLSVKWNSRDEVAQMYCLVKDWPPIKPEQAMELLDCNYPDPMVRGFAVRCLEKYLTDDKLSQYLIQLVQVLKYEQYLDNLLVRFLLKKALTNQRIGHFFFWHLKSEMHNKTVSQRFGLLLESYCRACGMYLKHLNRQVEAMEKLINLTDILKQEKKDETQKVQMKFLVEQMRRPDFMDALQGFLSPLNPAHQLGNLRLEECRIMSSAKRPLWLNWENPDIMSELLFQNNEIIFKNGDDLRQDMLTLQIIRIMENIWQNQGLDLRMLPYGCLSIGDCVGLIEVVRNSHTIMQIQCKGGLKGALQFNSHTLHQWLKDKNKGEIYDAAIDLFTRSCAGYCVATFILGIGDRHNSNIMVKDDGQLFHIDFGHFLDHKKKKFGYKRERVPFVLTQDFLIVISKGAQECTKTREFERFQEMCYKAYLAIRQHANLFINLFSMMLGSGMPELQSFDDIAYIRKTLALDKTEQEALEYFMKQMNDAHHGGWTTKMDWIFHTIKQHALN
T1 sequence (P27986 whole entry partner): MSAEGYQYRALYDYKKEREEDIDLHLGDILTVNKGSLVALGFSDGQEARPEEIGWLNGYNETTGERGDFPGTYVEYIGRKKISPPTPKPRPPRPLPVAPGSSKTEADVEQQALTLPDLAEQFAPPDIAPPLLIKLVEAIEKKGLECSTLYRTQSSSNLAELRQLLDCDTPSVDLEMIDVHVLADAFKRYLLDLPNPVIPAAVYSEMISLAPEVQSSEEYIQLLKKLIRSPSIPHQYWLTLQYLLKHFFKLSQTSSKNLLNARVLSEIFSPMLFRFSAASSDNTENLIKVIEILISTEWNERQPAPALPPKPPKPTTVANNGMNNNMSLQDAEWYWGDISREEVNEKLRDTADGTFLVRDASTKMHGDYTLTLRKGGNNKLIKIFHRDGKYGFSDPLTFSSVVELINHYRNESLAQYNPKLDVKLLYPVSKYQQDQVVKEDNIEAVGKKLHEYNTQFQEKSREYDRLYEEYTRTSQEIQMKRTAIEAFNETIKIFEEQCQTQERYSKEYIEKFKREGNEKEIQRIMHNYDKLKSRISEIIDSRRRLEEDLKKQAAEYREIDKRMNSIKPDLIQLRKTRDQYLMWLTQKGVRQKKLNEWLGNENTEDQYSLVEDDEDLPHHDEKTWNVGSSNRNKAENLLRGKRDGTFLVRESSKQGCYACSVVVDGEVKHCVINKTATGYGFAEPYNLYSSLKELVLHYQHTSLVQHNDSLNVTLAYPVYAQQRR
T2 sequence (P28482 whole entry, the tested form may be a part): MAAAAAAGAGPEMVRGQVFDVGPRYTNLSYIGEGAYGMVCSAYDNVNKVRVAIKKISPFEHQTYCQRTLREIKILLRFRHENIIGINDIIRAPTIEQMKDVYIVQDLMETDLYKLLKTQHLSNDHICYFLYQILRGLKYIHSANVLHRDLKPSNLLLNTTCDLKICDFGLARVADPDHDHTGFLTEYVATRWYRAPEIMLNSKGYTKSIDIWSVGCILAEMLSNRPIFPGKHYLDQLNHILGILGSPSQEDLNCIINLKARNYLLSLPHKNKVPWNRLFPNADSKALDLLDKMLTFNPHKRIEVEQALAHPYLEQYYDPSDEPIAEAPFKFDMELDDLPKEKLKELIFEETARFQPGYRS

For the compound `CCOc1c(-c2cnn(C)c2)cnc2ccc(Nc3nnc(C4CCCC4)s3)nc12` [Example 0358, 5-Cyclopentyl-N-(8-ethoxy-7-(1-methyl-1H-pyrazol-4-yl)-1,5-naphthyridin-2-yl)-1,3,4-thiadiazole-2-amine], the IC50 (on human PI3Kα protein; in assay [1]; in assay [2]) was under 1000 nM throughout.
For `CC(C)Oc1c(-c2cnn(C)c2)cnc2ccc(Nc3nnc(C4CCCC4)s3)nc12` [Example 0359, 5-cyclopentyl-N-(8-isopropyloxy-7-(1-methyl-1H-pyrazol-4-yl)-1,5-naphthyridin-2-yl)-1,3,4-thiadiazole-2-amine], the IC50 on human PI3Kα protein is under 1000 nM; in assay [1], under 1000 nM; in assay [2], 1000 to 10000 nM.
In the case of `Cc1c(-c2cnc3ccc(Nc4nnc(C(C)C)s4)nc3c2)cnn1CCCN1CCCC1` [Example 0360, 5-Isopropyl-N-(7-(5-methyl-1-(3-(pyrrolidin-1-yl)propyl)-1H-pyrazol-4-yl)-1,5-naphthyridin-2-yl)-1,3,4-thiadiazole-2-amine], the IC50 (on human PI3Kα protein; in assay [1]; in assay [2]) was under 1000 nM throughout.
Turning to `CCCc1nnc(Nc2ccc3ncc(-c4cnn(CCCN5CCCC5)c4)cc3n2)s1` [Example 0364], the IC50 (on human PI3Kα protein; in assay [1]; in assay [2]) was under 1000 nM each time.
On to `CC(C)c1cnnc(Nc2ccc3ncc(-c4cnn(C5CCN(C)CC5)c4)cc3n2)c1` [Example 0370, N-(5-isopropylpyridazin-3-yl)-7-(1-(1-methylpiperidin-4-yl)-1H-pyrazol-4-yl)-1,5-naphthyridine-2-amine], for which the IC50 (on human PI3Kα protein; in assay [1]; in assay [2]) was under 1000 nM in each case.
Take `CC(C)c1cnnc(Nc2ccc3ncc(-c4cnn(CCCc5ccccc5)c4)cc3n2)c1` [Example 0372]: the IC50 at human PI3Kα protein is 1000 to 10000 nM; in assay [1] it was under 1000 nM; in assay [2], under 1000 nM.
With `CNCc1nn(C)cc1-c1cnc2ccc(Nc3nnc(C(C)C)s3)nc2c1` [Example 0383, 5-isopropyl-N-(7-(1-methyl-3-((methylamino)methyl)-1H-pyrazol-4-yl)-1,5-naphthyridin-2-yl)-1,3,4-thiadiazole-2-amine], the IC50 on human PI3Kα protein is 1000 to 10000 nM; in assay [1], under 1000 nM; in assay [2] it was under 1000 nM.
Take `c1nc2ccc(Nc3cc(N4CCCC4)cnn3)nc2cc1-c1cnn(CCCN2CCCC2)c1` [Example 0402, 7-(1-(3-(Pyrrolidin-1-yl)propyl)-1H-pyrazol-4-yl)-N-(5-(pyrrolidin-1-yl)pyridazin-3-yl)-1,5-naphthyridine-2-amine]: the IC50 (on human PI3Kα protein; in assay [1]; in assay [2]) was under 1000 nM throughout.
Regarding `CC(C)c1cnnc(Nc2ccc3ncc(-c4cnn(CCCN5CCC(F)CC5)c4)cc3n2)c1` [Example 0413, 7-(1-(3-(4-Fluoropiperidin-1-yl)propyl)-1H-pyrazol-4-yl)-N-(5-isopropylpyridazin-3-yl)-1,5-naphthyridine-2-amine], the IC50 is under 1000 nM on human PI3Kα protein, under 1000 nM in assay [2] and at least 25 µM in the assay with CHO-K1 cells (setting [3]).
As to `CC(C)c1cnnc(Nc2ccc3ncc(-c4cnn(CCCN5CCS(=O)(=O)CC5)c4)cc3n2)c1` [Example 0417, 4-(3-(4-(6-((5-isopropylpyridazin-3-yl)amino)-1,5-naphthyridin-3-yl)-1H-pyrazol-1-yl)propyl)thiomorpholine 1,1-dioxide], the IC50 on human PI3Kα protein is under 1000 nM; in assay [2], under 1000 nM; in the assay with CHO-K1 cells (setting [3]) it was at least 25 µM.
Turning to `CC(C)c1cnnc(Nc2ccc3ncc(-c4cnn(CCC(C)N5CCOCC5)c4)cc3n2)c1` (stereo not drawn) [Example 0418, N-(5-isopropylpyridazin-3-yl)-7-(1-(3-morpholinobutyl)-1H-pyrazol-4-yl)-1,5-naphthyridine-2-amine], the IC50 on human PI3Kα protein is under 1000 nM; in assay [2] it was under 1000 nM; with CHO-K1 cells (setting [3]), at least 25 µM.
In the case of `CC(C)c1cnnc(Nc2ccc3ncc(-c4cnn(CCCN5CCSCC5)c4)cc3n2)c1` [Example 0420], the IC50 on human PI3Kα protein was under 1000 nM; in assay [2], under 1000 nM; in the assay with CHO-K1 cells (setting [3]) it was at least 25 µM.
As to `CC(C)c1cnnc(Nc2ccc3ncc(-c4cnn(CCCN5CCCC5=O)c4)cc3n2)c1` [Example 0422], the IC50 at human PI3Kα protein is under 1000 nM; in assay [2], under 1000 nM; in the assay on CHO-K1 cells (setting [3]) it was at least 25 µM.
Take `CC(C)c1cnnc(Nc2ccc3ncc(-c4cnn(CCCN5CCOCC5=O)c4)cc3n2)c1` [Example 0424]: the IC50 is under 1000 nM at human PI3Kα protein; under 1000 nM in assay [2]; at least 25 µM in the assay with CHO-K1 cells (CHO-K1, 24 h).
In the case of `CC(C)c1cnnc(Nc2ccc3ncc(-c4cnn(CCCN5C[C@@H](C)N(C)[C@@H](C)C5)c4)cc3n2)c1` [Example 0426, N-(5-isopropylpyridazin-3-yl)-7-(1-(3-((3S,5R)-3,4,5-trimethylpiperazin-1-yl)propyl)-1H-pyrazol-4-yl)-1,5-naphthyridine-2-amine], the IC50 is under 1000 nM on human PI3Kα protein, under 1000 nM in assay [2] and at least 25 µM in the assay on CHO-K1 cells (setting [3]).
On to `CC(C)c1cnnc(Nc2ccc3ncc(-c4cnn(CCCN5CCC(O)CC5)c4)cc3n2)c1` [Example 0430], for which the IC50 was under 1000 nM on human PI3Kα protein, under 1000 nM in assay [2] and at least 25 µM with CHO-K1 cells (setting [3]).
As to `Cc1nn(CCCN2C[C@@H](C)O[C@@H](C)C2)cc1-c1cnc2ccc(Nc3cc(C(C)C)cnn3)nc2c1` [Example 0431], the IC50 at human PI3Kα protein was under 1000 nM; in assay [2] it was under 1000 nM; in the assay on CHO-K1 cells (setting [3]), at least 25 µM.
Take `CC(C)c1cnnc(Nc2ccc3ncc(-c4cnn(CCCN5[C@H](C)CCC[C@@H]5C)c4)cc3n2)c1` [Example 0432]: the IC50 on human PI3Kα protein is under 1000 nM; in assay [2] it was under 1000 nM; in the assay on CHO-K1 cells (setting [3]), at least 25 µM.
As for `CC(C)c1cnnc(Nc2ccc3ncc(-c4cnn(CCCN5C[C@@H](C)N[C@@H](C)C5)c4)cc3n2)c1` [Example 0439, 7-(1-(3-((3S,5R)-3,5-dimethylpiperazin-1-yl)propyl)-1H-pyrazol-4-yl)-N-(5-isopropylpyridazin-3-yl)-1,5-naphthyridine-2-amine], the IC50 at human PI3Kα protein is under 1000 nM; in assay [2], under 1000 nM; in the assay with CHO-K1 cells (setting [3]) it was at least 25 µM.
Regarding `CC(=O)N1CC(n2cc(-c3cnc4ccc(Nc5cc(C(C)C)cnn5)nc4c3)cn2)C1` [Example 0443], the IC50 on human PI3Kα protein was under 1000 nM; in assay [2], under 1000 nM; with CHO-K1 cells (setting [3]), at least 25 µM.
Turning to `CC(C)c1cnnc(Nc2ccc3ncc(-c4cnn(Cc5cocn5)c4)cc3n2)c1` [Example 0450], the results for the IC50 (at human PI3Kα protein; in assay [2]; in the assay on CHO-K1 cells (setting [3])) were under 1000 nM, under 1000 nM and at least 25 µM, respectively.
Take `COCCn1cc(-c2cnc3ccc(Nc4cc(C(C)C)cnn4)nc3c2)cn1` [Example 0471, N-(5-isopropylpyridazin-3-yl)-7-(1-(2-methoxyethyl)-1H-pyrazol-4-yl)-1,5-naphthyridine-2-amine]: the IC50 (at human PI3Kα protein; in assay [1]; in assay [2]) was under 1000 nM in each case.
On to `COCCCn1cc(-c2cnc3ccc(Nc4cc(C(C)C)cnn4)nc3c2)cn1` [Example 0472], for which the IC50 (on human PI3Kα protein; in assay [1]; in assay [2]) was under 1000 nM each time.
For `CC(C)c1cnnc(Nc2ccc3ncc(-c4cnn(C5CCOCC5)c4)cc3n2)c1` [Example 0475, N-(5-isopropylpyridazin-3-yl)-7-(1-(tetrahydro-2H-pyran-4-yl)-1H-pyrazol-4-yl)-1,5-naphthyridine-2-amine], the IC50 (at human PI3Kα protein; in assay [1]; in assay [2]) was under 1000 nM in each case.
Regarding `COc1cc(-c2cnc3ccc(Nc4cc(C(C)C)cnn4)nc3c2)ccn1` [Example 0588], the IC50 on human PI3Kα protein was 1000 to 10000 nM; in assay [1], under 1000 nM; in assay [2], under 1000 nM.
As for `CC(C)c1cnnc(Nc2ccc3ncc(-c4ccnc(O)c4)cc3n2)c1` [Example 0589, 4-(6-((5-isopropylpyridazin-3-yl)amino)-1,5-naphthyridin-3-yl)pyridin-2-ol], the IC50 (at human PI3Kα protein; in assay [1]; in assay [2]) was under 1000 nM each time.

(Values after patent US9783536B2, “Nitrogen-containing heterocyclic compound or salt thereof” (FUJIFILM Corporation, priority 2013, dated 2017).)
